The values that follow come from ChEMBL document CHEMBL1201862, “PubChem BioAssay data set” (2004).

Some test systems named below: ACHN; HCC 2998; HCT-116; HCT-15; HT-29; MDA-MB-435; NCI-H460; RXF 393; SF-268; SF-295; SF-539; SN12C; T47D; HOP-92; UACC-257.
Test in all cases: inhibition of tumour cell growth, NCI panel, 48 h

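Values below derive from 48-hour exposures of cells grown in 96-well plates, with endpoints linearly interpolated between the two concentrations bracketing the appropriate inhibition level. GI50: concentration for 50% inhibition of growth.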 Calls of active or inactive are those of the source. No stated cut-off is given here; in the data, active = GI50 up to about 1.1 µM and inactive = higher.

As for `COc1cc(N/N=C/C#N)cc(OC)c1OC`, the GI50 is 4.86 µM (inactive) with ACHN; > 10 µM (inactive) with HCC 2998; > 10 µM (inactive) with HCT-116; over 10 µM with HCT-15; > 10 µM (inactive) with HT-29; > 10 µM (inactive) in the test on MDA-MB-435. Moreover, the GI50 in the test with NCI-H460, in the test on RXF 393, with SF-268, in the test with SF-295, in the test on SF-539 and with SN12C was > 10 µM (inactive) each time. Also, in the test on T47D, the GI50 is 4.65 µM (inactive).

In the case of `COC(=O)CC1(CNC(=O)OCc2ccccc2)OCCO1`, the GI50 is > 100 µM (inactive) with ACHN; > 100 µM (inactive) in the test with HCC 2998; > 100 µM (inactive) in the test with HCT-116; over 100 µM with HCT-15; > 100 µM (inactive) with HOP-92; > 100 µM (inactive) in the test on MDA-MB-435. Moreover, the GI50 in the test with NCI-H460, in the test on RXF 393, in the test on SF-295, with SF-539, in the test on SN12C and in the test on UACC-257 was > 100 µM (inactive) in each case.

As for `N#Cc1cc2c(cc1C#N)/C(=N\c1cccc(N)n1)N/C2=N\c1cccc(N)n1`, the GI50 in the test with ACHN is 20.4 µM (inactive); in the test on HCC 2998, 20.5 µM (inactive); in the test with HCT-116, 11.1 µM (inactive); with HCT-15, 16.3 µM; with HT-29 it was 23.1 µM (inactive); in the test on MDA-MB-435, 19.1 µM (inactive). The GI50 with NCI-H460 is 22.4 µM (inactive); in the test with SF-268, 15.1 µM (inactive); in the test on SF-295, 21.3 µM (inactive); with SF-539 it was 6.75 µM (inactive); with SN12C, 32.9 µM (inactive); in the test on T47D it was 21.8 µM (inactive). Moreover, the GI50 in the test with UACC-257 is 28.1 µM (inactive).

Regarding `Cc1ccc(-c2c(C#N)c(-c3ccc([N+](=O)[O-])cc3)c(C#N)c(=O)n2NS(=O)(=O)c2ccccc2)cc1`, the GI50 in the test on ACHN is 39.2 µM (inactive); in the test with HCC 2998 it was 25.5 µM (inactive); in the test on HCT-116 it was 31.7 µM (inactive); in the test on HCT-15, 36 µM; with HOP-92, 13.3 µM (inactive); with HT-29, 41.8 µM (inactive). Besides, the GI50 was 54.5 µM (inactive) in the test on MDA-MB-435; 32.3 µM (inactive) in the test on NCI-H460; 29.4 µM (inactive) in the test with RXF 393; 49 µM (inactive) in the test on SF-268; 27.8 µM (inactive) in the test on SF-295; 32.3 µM (inactive) in the test with SF-539. The GI50 in the test on SN12C was 96.2 µM (inactive); in the test with UACC-257, 88.3 µM (inactive).

Take `COC(=O)C1=C(C(=O)OC)C(N(C)C)C(C(=O)OC)=C(C(=O)OC)S1`: the GI50 was > 100 µM (inactive) in the test with ACHN; > 100 µM (inactive) in the test on HCC 2998; > 100 µM (inactive) in the test on HCT-116; over 100 µM in the test on HCT-15; > 100 µM (inactive) in the test on MDA-MB-435; 57.1 µM (inactive) with NCI-H460. In addition, the GI50 with RXF 393, with SF-268, in the test with SF-295, in the test on SN12C, in the test on T47D and in the test on UACC-257 was > 100 µM (inactive) in each case.

As to `CC1CNC(NS(=O)(=O)c2cc(C(=O)Nc3ccc(F)cc3)c(Cl)cc2S)=NN1` (stereo unspecified), the GI50 was 77.4 µM (inactive) with ACHN; 40.5 µM (inactive) in the test on HCC 2998; 37.7 µM (inactive) in the test with HCT-116; 37.8 µM with HCT-15; 51.4 µM (inactive) in the test on HT-29; 35.7 µM (inactive) with MDA-MB-435. Further, the GI50 was 78.5 µM (inactive) with NCI-H460; 50.4 µM (inactive) with SF-268; 66.5 µM (inactive) in the test with SF-295; 39.5 µM (inactive) in the test on SF-539; > 100 µM (inactive) in the test on SN12C; > 100 µM (inactive) with UACC-257.
